Source: US12662482B2 (The Johns Hopkins University, priority 2020, dated 2026)
Structures can show the parent of a compound that is named as a salt.

Tested on: RPA194
Assay: RPA194 destruction / Pol I inhibition, high-content imaging in A375 cells
Assay type: cell-based
Conditions: A375 cells treated for 4 hours, anti-RPA194 immunofluorescence; pIC50 >= 5.02 deemed a Pol I inhibitor
Method: Cell culture: A375 cells (CRL-1619, ATCC) were grown in DMEM (GJBCO) supplemented with […] (GTBCO) in 5% CO2 at 37° C.
Cell treatment and Imaging: 18 hours post-seeding in cell carrier black 384-well plates (PerkinElmer) at 15 000 cells/well, A375 cells were treated for 4 hours with a positive control or test compounds (9 serial semi-log dilutions, top concentration 10 μM). Upon treatment A375 cells were (i) fixed for 15 min at RT with 4% of paraformaldehyde, (ii) permeabilized for 20 min at RT with 0.1-0.5% of NP-40, (iii) incubated with primary antibodies at 4° C.: anti-RPA194 (1:1000-1:1250 dilution, sc-48385, Santa Cruz Biotechnology) and anti-gH2Ax (1:5000 dilution, 81299, Abcam or 1:4000, JBW302, Millipore) (iv) incubated for 1 h at RT with Hoechst (1:5000 dilution, H3570, ThermoFisher) and secondary antibodies: anti-mouse-AlexaFluor488 (1:2000 dilution, A11001, ThermoFisher) and anti-rabbit-AlexaFluor647 (1:2000 dilution, A21443, ThermoFisher) or goat anti-mouse AlexaFluor-594 (1:1000 dilution). Images were acquired on an Operetta CLS High-Content Analysis System (PerkinElmer) (40× objective; 9 fields/well) and processed using the Columbus Image Analysis System (PerkinElmer) or by using Molecular Devices ImageXpress Micro XLS High Content Imager and MetaXpress high-content acquisition and analysis software.
In the table below, (+) is associated with a pIC50 5.02 to 5.8; (++) with pIC50 5.8 to 6.3; and (+++) with a pIC50 above 6.3.

| Compound | Activity Range (pIC50) |
| --- | --- |
| CNC(C)CNC(=O)c1cccn2c(=O)c3ccc4ccccc4c3nc12 (single isomer, unassigned) [Example 19, (S or R)-N-(2-(methylamino)propyl)-7-oxo-7H-benzo[h]pyrido[2,1-b]quinazoline-12-carboxamide; hydrochloride] | ++ ((++) with pIC50 5.8 to 6.3) |
| CNC(C)CNC(=O)c1cccn2c(=O)c3ccc4ccccc4c3nc12 (single isomer, unassigned) [Example 20, (R or S)-N-(2-(methylamino)propyl)-7-oxo-7H-benzo[h]pyrido[2,1-b]quinazoline-12-carboxamide; hydrochloride] | ++ ((++) with pIC50 5.8 to 6.3) |
| CN(C)CCNC(=O)c1cccn2c(=O)c3ccc4ccccc4c3nc12 [Example 1, hydrochloride] | +++ ((+++) with a pIC50 above 6.3) |
| O=C(NCCN1CC[C@H](O)C1)c1cccn2c(=O)c3ccc4ccccc4c3nc12 [Example 2, (S)-N-(2-(3-hydroxypyrrolidin-1-yl)ethyl)-7-oxo-7H-benzo[h]pyrido[2,1-b]quinazoline-12-carboxamide; hydrochloride] | +++ ((+++) with a pIC50 above 6.3) |
| O=C(NCCN1CC[C@@H](O)C1)c1cccn2c(=O)c3ccc4ccccc4c3nc12 [Example 3, (R)-N-(2-(3-hydroxypyrrolidin-1-yl)ethyl)-7-oxo-7H-benzo[h]pyrido[2,1-b]quinazoline-12-carboxamide; hydrochloride] | +++ ((+++) with a pIC50 above 6.3) |
| O=C(NCCN1CCCC1)c1cccn2c(=O)c3ccc4ccccc4c3nc12 [Example 4, 7-oxo-N-(2-(pyrrolidin-1-yl)ethyl)-7H-benzo[h]pyrido[2,1-b]quinazoline-12-carboxamide hydrochloride] | +++ ((+++) with a pIC50 above 6.3) |
| O=C(NCCN1CCC(O)CC1)c1cccn2c(=O)c3ccc4ccccc4c3nc12 [Example 5, N-(2-(4-hydroxypiperidin-1-yl)ethyl)-7-oxo-7H-benzo[h]pyrido[2,1-b]quinazoline-12-carboxamide hydrochloride] | +++ ((+++) with a pIC50 above 6.3) |
| CN(C)C(C)(C)CNC(=O)c1cccn2c(=O)c3ccc4ccccc4c3nc12 [Example 6, N-(2-(dimethylamino)-2-methylpropyl)-7-oxo-7H-benzo[h]pyrido[2,1-b]quinazoline-12-carboxamide hydrochloride] | ++ ((++) with pIC50 5.8 to 6.3) |
| O=C(NCCN1C[C@@H](O)[C@H](O)C1)c1cccn2c(=O)c3ccc4ccccc4c3nc12 [Example 7, N-(2-((3R,4R)-3,4-dihydroxy-pyrrolidin-1-yl)ethyl)-7-oxo-7H-benzo[h]pyrido[2,1-b]quinazoline-12-carboxamide hydrochloride] | +++ ((+++) with a pIC50 above 6.3) |
| O=C(NC1CNC1)c1cccn2c(=O)c3ccc4ccccc4c3nc12 [Example 8, N-(azetidin-3-yl)-7-oxo-7H-benzo[h]pyrido[2,1-b]quinazoline-12-carboxamide dihydrochloride] | + ((+) is associated with a pIC50 5.02 to 5.8) |
| CN1CC(NC(=O)c2cccn3c(=O)c4ccc5ccccc5c4nc23)C1 [Example 9, N-(1-methylazetidin-3-yl)-7-oxo-7H-benzo[h]pyrido[2,1-b]quinazoline-12-carboxamide hydrochloride] | ++ ((++) with pIC50 5.8 to 6.3) |
| C[C@@H](CNC(=O)c1cccn2c(=O)c3ccc4ccccc4c3nc12)N(C)C [Example 10, (S)-N-(2-(dimethylamino)propyl)-7-oxo-7H-benzo[h]pyrido[2,1-b]quinazoline-12-carboxamide; hydrochloride] | ++ ((++) with pIC50 5.8 to 6.3) |
| C[C@H](CNC(=O)c1cccn2c(=O)c3ccc4ccccc4c3nc12)N(C)C [Example 11, (R)-N-(2-(dimethylamino)propyl)-7-oxo-7H-benzo[h]pyrido[2,1-b]quinazoline-12-carboxamide; hydrochloride] | +++ ((+++) with a pIC50 above 6.3) |
| CCN(CC)CCNC(=O)c1cccn2c(=O)c3ccc4ccccc4c3nc12 [Example 12, N-(2-(diethylamino)ethyl)-7-oxo-7H-benzo[h]pyrido[2,1-b]quinazoline-12-carboxamide; hydrochloride] | ++ ((++) with pIC50 5.8 to 6.3) |
| C[C@@H](CN(C)C)NC(=O)c1cccn2c(=O)c3ccc4ccccc4c3nc12 [Example 13, (S)-N-(1-(dimethylamino)propan-2-yl)-7-oxo-7H-benzo[h]pyrido[2,1-b]quinazoline-12-carboxamide; hydrochloride] | ++ ((++) with pIC50 5.8 to 6.3) |
| C[C@H](CN(C)C)NC(=O)c1cccn2c(=O)c3ccc4ccccc4c3nc12 [Example 14, (R)-N-(1-(dimethylamino)propan-2-yl)-7-oxo-7H-benzo[h]pyrido[2,1-b]quinazoline-12-carboxamide; hydrochloride] | +++ ((+++) with a pIC50 above 6.3) |
| O=C(NCCN1CCCCC1)c1cccn2c(=O)c3ccc4ccccc4c3nc12 [Example 15, 7-oxo-N-(2-(piperidin-1-yl)ethyl)-7H-benzo[h]pyrido[2,1-b]quinazoline-12-carboxamide; hydrochloride] | ++ ((++) with pIC50 5.8 to 6.3) |
| CNCCNC(=O)c1cccn2c(=O)c3ccc4ccccc4c3nc12 [Example 16, N-(2-(methylamino)ethyl)-7-oxo-7H-benzo[h]pyrido[2,1-b]quinazoline-12-carboxamide hydrochloride] | +++ ((+++) with a pIC50 above 6.3) |
| NCCNC(=O)c1cccn2c(=O)c3ccc4ccccc4c3nc12 [Example 17, N-(2-aminoethyl)-7-oxo-7H-benzo[h]pyrido[2,1-b]quinazoline-12-carboxamide hydrochloride] | + ((+) is associated with a pIC50 5.02 to 5.8) |
| CCN(C)CCNC(=O)c1cccn2c(=O)c3ccc4ccccc4c3nc12 [Example 18, N-(2-(ethyl(methyl)amino)ethyl)-7-oxo-7H-benzo[h]pyrido[2,1-blquinazoline-12-carboxamide hydrochloride] | +++ ((+++) with a pIC50 above 6.3) |
| CC1(C)CCN(CCNC(=O)c2cccn3c(=O)c4ccc5ccccc5c4nc23)C1 [Example 21, N-(2-(3,3-dimethylpyrrolidin-1-yl)ethyl)-7-oxo-7H-benzo[h]pyrido[2,1-b]quinazoline-12-carboxamide hydrochloride] | ++ ((++) with pIC50 5.8 to 6.3) |
| O=C1CCN(CCNC(=O)c2cccn3c(=O)c4ccc5ccccc5c4nc23)CC1 [Example 22, 7-oxo-N-(2-(4-oxopiperidin-1-yl)ethyl)-7H-benzo[h]pyrido[2,1-b]quinazoline-12-carboxamide hydrochloride] | ++ ((++) with pIC50 5.8 to 6.3) |
| CO[C@H]1CCN(CCNC(=O)c2cccn3c(=O)c4ccc5ccccc5c4nc23)C1 [Example 23, (S)-N-(2-(3-methoxypyrrolidin-1-yl)ethyl)-7-oxo-7H-benzo[h]pyrido[2,1-b]quinazoline-12-carboxamide hydrochloride] | +++ ((+++) with a pIC50 above 6.3) |
| CO[C@@H]1CCN(CCNC(=O)c2cccn3c(=O)c4ccc5ccccc5c4nc23)C1 [Example 24, (R)-N-(2-(3-methoxypyrrolidin-1-yl)ethyl)-7-oxo-7H-benzo[h]pyrido[2,1-b]quinazoline-12-carboxamide hydrochloride] | ++ ((++) with pIC50 5.8 to 6.3) |
| O=C(NCCN1CC[C@@H](F)C1)c1cccn2c(=O)c3ccc4ccccc4c3nc12 [Example 25, (R)-N-(2-(3-fluoropyrrolidin-1-yl)ethyl)-7-oxo-7H-benzo[h]pyrido[2,1-b]quinazoline-12-carboxamide hydrochloride] | + ((+) is associated with a pIC50 5.02 to 5.8) |
| C[C@@H](CN1C[C@H](O)[C@@H](O)C1)NC(=O)c1cccn2c(=O)c3ccc4ccccc4c3nc12 [Example 26, N-((S)-1-((3S,4S)-3,4-dihydroxy-pyrrolidin-1-yl)propan-2-yl)-7-oxo-7H-benzo[h]pyrido[2,1-b]quinazoline-12-carboxamide hydrochloride] | ++ ((++) with pIC50 5.8 to 6.3) |
| C[C@H](CN1C[C@H](O)[C@@H](O)C1)NC(=O)c1cccn2c(=O)c3ccc4ccccc4c3nc12 [Example 27, N-((R)-1-((3S,4S)-3,4-dihydroxy-pyrrolidin-1-yl)propan-2-yl)-7-oxo-7H-benzo[h]pyrido[2,1-b]quinazoline-12-carboxamide hydrochloride] | ++ ((++) with pIC50 5.8 to 6.3) |
| C[C@@H](CN1CC[C@H](O)C1)NC(=O)c1cccn2c(=O)c3ccc4ccccc4c3nc12 [Example 28, N-((S)-1-((S)-3-hydroxypyrrolidin-1-yl)propan-2-yl)-7-oxo-7H-benzo[h]pyrido[2,1-b]quinazoline-12-[(2S)-2-aminopropyl] pyrrolidin-3-ol; hydrochloride (165 mg, carboxamide hydrochloride] | ++ ((++) with pIC50 5.8 to 6.3) |
